From article PMC2699545 (Molecular genetics and metabolism, 2009)

How the values were obtained:
N370S GCase [1] = target: T1, N370S GCase (Homo sapiens, UniProt P04062, N409S); experiment: GCase inhibition by active site-directed inhibitors, 4MU-Glc substrate; assay type: biochemical
T1 sequence (P04062 40-536 N409S): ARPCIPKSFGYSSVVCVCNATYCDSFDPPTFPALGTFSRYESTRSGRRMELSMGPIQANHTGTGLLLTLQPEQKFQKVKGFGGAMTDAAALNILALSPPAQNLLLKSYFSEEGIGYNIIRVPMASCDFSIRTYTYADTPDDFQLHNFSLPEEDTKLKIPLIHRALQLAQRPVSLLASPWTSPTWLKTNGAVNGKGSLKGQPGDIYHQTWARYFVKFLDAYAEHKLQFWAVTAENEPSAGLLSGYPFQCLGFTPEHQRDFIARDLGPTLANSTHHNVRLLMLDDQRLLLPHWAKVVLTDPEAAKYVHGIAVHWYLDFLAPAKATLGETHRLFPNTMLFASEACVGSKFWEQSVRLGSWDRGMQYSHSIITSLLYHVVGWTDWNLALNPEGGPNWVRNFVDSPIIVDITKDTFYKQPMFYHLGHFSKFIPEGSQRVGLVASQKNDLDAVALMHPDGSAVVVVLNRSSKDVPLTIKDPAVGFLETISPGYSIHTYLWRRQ

N370D GCase [2] = target: T2, N370D GCase (Homo sapiens, UniProt P04062, N409D); experiment: as above; assay type: biochemical
T2 sequence (P04062 40-536 N409D): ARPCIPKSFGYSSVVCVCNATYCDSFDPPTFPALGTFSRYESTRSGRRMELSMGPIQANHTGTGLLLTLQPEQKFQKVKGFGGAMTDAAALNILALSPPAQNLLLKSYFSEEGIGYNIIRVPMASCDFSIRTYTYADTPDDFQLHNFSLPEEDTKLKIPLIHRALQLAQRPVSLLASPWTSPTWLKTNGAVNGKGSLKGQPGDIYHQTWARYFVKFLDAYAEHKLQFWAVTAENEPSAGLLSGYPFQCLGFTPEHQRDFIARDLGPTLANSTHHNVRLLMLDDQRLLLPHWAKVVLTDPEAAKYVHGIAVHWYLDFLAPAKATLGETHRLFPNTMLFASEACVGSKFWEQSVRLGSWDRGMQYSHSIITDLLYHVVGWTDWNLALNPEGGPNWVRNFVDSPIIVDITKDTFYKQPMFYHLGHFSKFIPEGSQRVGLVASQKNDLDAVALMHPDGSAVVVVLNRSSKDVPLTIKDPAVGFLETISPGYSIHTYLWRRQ

N370 (wild-type) GCase [3] = target: T3, N370 (wild-type) GCase (Homo sapiens, UniProt P04062); experiment: as above; assay type: biochemical
T3 sequence (P04062 40-536): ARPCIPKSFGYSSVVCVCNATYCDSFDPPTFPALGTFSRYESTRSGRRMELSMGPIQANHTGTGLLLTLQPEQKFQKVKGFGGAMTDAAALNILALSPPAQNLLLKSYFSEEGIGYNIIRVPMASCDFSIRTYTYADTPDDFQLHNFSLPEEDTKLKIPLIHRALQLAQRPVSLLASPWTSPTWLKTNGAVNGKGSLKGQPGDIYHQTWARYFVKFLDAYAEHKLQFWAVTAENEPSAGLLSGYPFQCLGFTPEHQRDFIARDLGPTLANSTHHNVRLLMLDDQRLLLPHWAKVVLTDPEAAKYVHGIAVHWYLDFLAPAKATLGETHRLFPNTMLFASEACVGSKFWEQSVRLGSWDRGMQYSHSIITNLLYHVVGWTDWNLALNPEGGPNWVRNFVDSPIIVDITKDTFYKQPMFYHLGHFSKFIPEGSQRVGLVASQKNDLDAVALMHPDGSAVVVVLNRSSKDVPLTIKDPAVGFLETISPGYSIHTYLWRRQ

N370Q GCase [4] = target: T4, N370Q GCase (Homo sapiens, UniProt P04062, N409Q); experiment: as above; assay type: biochemical
T4 sequence (P04062 40-536 N409Q): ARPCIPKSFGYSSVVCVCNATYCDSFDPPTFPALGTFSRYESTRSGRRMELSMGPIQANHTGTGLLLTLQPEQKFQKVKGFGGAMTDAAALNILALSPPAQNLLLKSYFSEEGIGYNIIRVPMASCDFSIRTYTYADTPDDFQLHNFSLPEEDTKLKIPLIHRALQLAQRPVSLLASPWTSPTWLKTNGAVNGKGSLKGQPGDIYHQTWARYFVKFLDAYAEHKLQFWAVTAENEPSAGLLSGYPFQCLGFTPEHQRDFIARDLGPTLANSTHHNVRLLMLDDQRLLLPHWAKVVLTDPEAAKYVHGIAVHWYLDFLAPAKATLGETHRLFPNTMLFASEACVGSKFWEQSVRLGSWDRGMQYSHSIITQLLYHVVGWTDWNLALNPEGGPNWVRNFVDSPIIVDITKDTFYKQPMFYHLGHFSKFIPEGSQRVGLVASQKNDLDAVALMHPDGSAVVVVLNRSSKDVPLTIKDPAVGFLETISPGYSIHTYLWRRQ

N370E GCase [5] = target: T5, N370E GCase (Homo sapiens, UniProt P04062, N409E); experiment: as above; assay type: biochemical
T5 sequence (P04062 40-536 N409E): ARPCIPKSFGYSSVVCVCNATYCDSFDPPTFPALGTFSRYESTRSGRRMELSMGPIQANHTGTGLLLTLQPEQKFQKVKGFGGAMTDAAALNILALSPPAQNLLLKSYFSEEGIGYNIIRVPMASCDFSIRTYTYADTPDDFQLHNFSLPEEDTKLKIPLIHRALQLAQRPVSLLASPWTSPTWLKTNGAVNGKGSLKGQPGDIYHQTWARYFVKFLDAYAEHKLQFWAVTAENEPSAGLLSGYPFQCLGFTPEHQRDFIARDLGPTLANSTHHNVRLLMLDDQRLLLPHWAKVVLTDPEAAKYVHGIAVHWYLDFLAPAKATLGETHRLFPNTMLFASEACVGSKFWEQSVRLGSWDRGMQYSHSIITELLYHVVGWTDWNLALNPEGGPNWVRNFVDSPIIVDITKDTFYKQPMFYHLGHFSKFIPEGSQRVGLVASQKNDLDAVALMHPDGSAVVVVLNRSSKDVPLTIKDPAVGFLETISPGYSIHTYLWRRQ

[6] = test system: all active enzymes (wild-type and mutant GCases); experiment: Km for 4MU-Glc from Lineweaver-Burk plots; assay type: biochemical, human
E235G GCase = target: T6, E235G GCase (Homo sapiens, UniProt P04062, E274G); experiment: E235G hydrolysis of alternative substrates, with or without azide; assay type: biochemical; conditions: for E235G activity toward substrate compared to wild-type enzyme: TC (4.25 mM) as activator, no azide
T6 sequence (P04062 40-536 E274G): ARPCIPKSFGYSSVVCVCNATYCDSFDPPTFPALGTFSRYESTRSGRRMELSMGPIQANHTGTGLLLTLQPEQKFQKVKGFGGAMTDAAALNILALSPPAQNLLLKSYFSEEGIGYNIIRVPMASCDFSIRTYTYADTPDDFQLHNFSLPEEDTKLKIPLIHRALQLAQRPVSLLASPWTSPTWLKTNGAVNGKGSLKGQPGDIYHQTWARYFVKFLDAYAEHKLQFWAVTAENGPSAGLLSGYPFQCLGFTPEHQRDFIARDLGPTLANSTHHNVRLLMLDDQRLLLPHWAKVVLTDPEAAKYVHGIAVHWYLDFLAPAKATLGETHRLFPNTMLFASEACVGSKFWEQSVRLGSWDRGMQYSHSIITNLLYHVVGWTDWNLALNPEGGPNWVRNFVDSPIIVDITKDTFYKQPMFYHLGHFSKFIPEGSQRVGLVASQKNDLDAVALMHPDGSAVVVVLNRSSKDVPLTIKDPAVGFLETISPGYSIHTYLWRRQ

[7] = test system: N370, N370D, N370E and N370S enzymes; experiment: Km for DNPG; assay type: biochemical, human; conditions: same for all the mutants (Fig. 4 legend)
N370E GCase [8] = target: T5, N370E GCase; experiment: Enzyme activation by TC or saposin C
N370Q GCase [9] = target: T4, N370Q GCase; experiment: Enzyme activation by TC or saposin C
N370 (wild-type) GCase [10] = target: T3, N370 (wild-type) GCase; experiment: Enzyme activation by TC or saposin C
N370D GCase [11] = target: T2, N370D GCase; experiment: Enzyme activation by TC or saposin C
N370S GCase [12] = target: T1, N370S GCase; experiment: Enzyme activation by TC or saposin C
wild-type GCase = wild-type GCase (Homo sapiens, UniProt P04062); conditions: azide at 1:4 molar ratio enzyme to azide; DNPG
[13] = TC 0 to 8 mM, Triton X-100 4 mM, pH 5.6
[14] = in combination with 0.5 μM BPS, pH 5.5

Molecule: O[C@H]1[C@H](O)[C@@H](O)[C@@H]2O[C@@H]2[C@@H]1O (racemic) [Conduritol B Epoxide, conduritol B epoxide]
- IC50 (N370S GCase [1]): 251 ± 29 µM
- IC50 (N370D GCase [2]): 72 ± 2 µM
- IC50 (N370 (wild-type) GCase [3]): 73 ± 3 µM
- IC50 (N370Q GCase [4]): 75 ± 2.5 µM
- IC50 (N370E GCase [5]): 78 ± 4 µM

Molecule: Cc1cc(=O)oc2cc(O[C@@H]3O[C@H](CO)[C@@H](O)[C@H](O)[C@H]3O)ccc12 [4MU-Glc, 4-methylumbelliferyl-β-D-glucoside]
- Km [6]: 2000 ± 500 µM
- E235G activity toward substrate compared to wild-type enzyme (E235G GCase): less than 0.05%

Molecule: O=[N+]([O-])c1ccc(O[C@@H]2O[C@H](CO)[C@@H](O)[C@H](O)[C@H]2O)c([N+](=O)[O-])c1 [DNPG, 2,4-dinitrophenyl-β-D-glucoside]
- Km [7]: 108 ± 17 µM
- E235G activity toward substrate compared to wild-type enzyme (E235G GCase): ~ 2%

Molecule: C[C@H](CCC(=O)NCCS(=O)(=O)O)[C@H]1CC[C@H]2[C@@H]3[C@H](O)C[C@@H]4C[C@H](O)CC[C@]4(C)[C@H]3C[C@H](O)[C@]12C [TC, Sodium taurocholate]
- fold activation by TC (N370E GCase [8]; [13]): ~ 8 fold
- fold activation by TC (N370Q GCase [9]; [13]): ~ 1.5 fold
- fold activation by TC (N370 (wild-type) GCase [10]; wild-type, TC 0 to 8 mM, Triton X-100 4 mM, pH 5.6): ~ 25 fold
- fold activation by TC (N370D GCase [11]; [13]): ~ 22 fold
- fold activation by TC (N370S GCase [12]; TC ≥ 4 mM, Triton X-100 4 mM, pH 5.6): ~ 35 fold

Molecule: [N-]=[N+]=[N-].[Na+] [azide, sodium azide]
- effect of azide on wild-type enzyme activity (wild-type GCase): no effect
- hydrolytic rate of 2,4-DNP-β-glucose by E235G relative to wild-type (E235G GCase; 10 μM azide (Fig. 6A)): 95%
- hydrolytic rate of DNPG by E235G relative to wild-type enzyme (E235G GCase; 1:4 molar ratio of enzyme to azide): ~ 90%

Molecule: O=[N+]([O-])c1ccccc1O[C@@H]1O[C@H](CO)[C@H](O)[C@H](O)[C@H]1O [o-NPG, o-nitrophenyl-β-glucose]
- E235G activity toward substrate compared to wild-type enzyme (E235G GCase): less than 0.05%

Molecule: O=[N+]([O-])c1ccc(O[C@@H]2O[C@H](CO)[C@H](O)[C@H](O)[C@H]2O)cc1 [p-NPG, p-nitrophenyl-β-glucose]
- E235G activity toward substrate compared to wild-type enzyme (E235G GCase): less than 0.05%

B1: saposin C: protein cofactor of GCase for optimal hydrolytic activity (protein, UniProt P07602 311-390, looked up)
Saposin-C: SDVYCEVCEFLVKEVTKLIDNNKTEKEILDAFDKMCSKLPKSLSEECQEVVDTYGSSILSILLEEVSPELVCSMLHLCSG
modifications: Saposin-C
- fold enhancement by saposin C (N370E GCase [8]; [14]): 1.8 fold
- enhancement by saposin C (N370Q GCase [9]; [14]): no effect
- fold enhancement by saposin C (N370 (wild-type) GCase [10]; N370 (WT), in combination with 0.5 μM BPS, pH 5.5): ~ 3.5 fold
- fold enhancement by saposin C (N370D GCase [11]; [14]): 1.8 fold
- fold enhancement by saposin C (N370S GCase [12]; [14]): ~ 2.4 fold
